Reference: the supplement of paper PMC5908809

Legend:
NK-YS (IL-2 2.5 ng/mL) [1] = test: percent inhibition of viability; higher = more inhibition; conditions: 72 h
YT (IL-2 2.5 ng/mL) [2] = test: as above; conditions: 72 h
[3] = tested on: normal primary NK cells, pool 1 (3 donors), resting (IL-2 0 ng/mL); test: as above; conditions: 72 h
NK-92 (IL-2 2.5 ng/mL) [4] = test: as above; conditions: 72 h
[5] = tested on: normal primary NK cells, pool 3 (3 donors) (IL-2 2.5 ng/mL); test: as above; conditions: 72 h
[6] = tested on: normal NK cells expanded with K562-aAPC; test: drug sensitivity score (DSS) (DSS units); higher = more sensitive; extreme values may be limits of the assay; conditions: 72 h; IL-2 2.5 ng/mL
Protocol: (§1)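 Drug sensitivity and resistance testing on K562-aAPC-expanded normal NK cells: 5 concentrations (10-fold steps over a 10,000-fold range), 72 h at 37 °C, viability by CellTiter-Glo normalised to DMSO and benzethonium chloride controls; DSS from the fitted curve.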

NKL (IL-2 2.5 ng/mL) = test: as above; conditions: 72 h
KAI3 (IL-2 2.5 ng/mL) = test: as above; conditions: 72 h
IMC-1 (IL-2 20 ng/mL) = test: as above; conditions: 72 h
KHYG-1 (IL-2 2.5 ng/mL) = test: as above; conditions: 72 h
SNK-6 (IL-2 2.5 ng/mL) = test: as above; conditions: 72 h
DERL-7 (IL-2 2.5 ng/mL) = test: as above; conditions: 72 h
[7] = tested on: normal primary NK cells, pool 1 (3 donors) (IL-2 2.5 ng/mL); test: as above; conditions: 72 h
[8] = tested on: normal primary NK cells, pool 2 (3 donors) (IL-2 2.5 ng/mL); test: as above; conditions: 72 h
NK-YS (IL-2 2.5 ng/mL) [9] = test: as above; conditions: 72 h
YT (IL-2 2.5 ng/mL) [10] = test: as above; conditions: 72 h
[11] = tested on: normal primary NK cells, pool 1 (3 donors), resting (IL-2 0 ng/mL); test: as above; conditions: 72 h
NK-92 (IL-2 2.5 ng/mL) [12] = test: as above; conditions: 72 h
[13] = tested on: normal primary NK cells, pool 3 (3 donors) (IL-2 2.5 ng/mL); test: as above; conditions: 72 h
[14] = tested on: normal NK cells expanded with K562-aAPC; test: percent inhibition of viability; higher = more inhibition; conditions: 72 h, IL-2 2.5 ng/mL
Protocol: as §1

CCn1nnc2c(N3CCOCC3)nc(-c3ccc(NC(=O)Nc4ccc(C(=O)N5CCN(C)CC5)cc4)cc3)nc21 [PKI-402] (max concentration tested 2500 nM)
percent inhibition of viability [%]
Conditions | NK-92 (IL-2 2.5 ng/mL) [4] | NK-YS (IL-2 2.5 ng/mL) [1] | YT (IL-2 2.5 ng/mL) [2] | [3] | [5] | [14]
0.25 nM | -19.1 | – | -3.62 | -7.29 | -10.9 | -5.93
2.5 nM | -16.8 | – | -7.8 | 0.44 | -4.56 | -8.28
25 nM | -1.05 | 4.39 | 0.22 | 14.9 | 0.88 | -5.99
250 nM | 13.1 | 52 | 50.5 | 31.1 | 11 | 11.4
2500 nM | 63.7 | 75.7 | 82.6 | 26.7 | 34.4 | 51

Conditions | drug sensitivity score
DERL-7 (IL-2 2.5 ng/mL) | 15.9
IMC-1 (IL-2 20 ng/mL) | 0.69
KAI3 (IL-2 2.5 ng/mL) | 11.4
KHYG-1 (IL-2 2.5 ng/mL) | 8.93
NK-92 (IL-2 2.5 ng/mL) [12] | 5.62
NK-YS (IL-2 2.5 ng/mL) [9] | 10.6
NKL (IL-2 2.5 ng/mL) | 11.6
SNK-6 (IL-2 2.5 ng/mL) | 6.93
YT (IL-2 2.5 ng/mL) [10] | 10.6
[6] | 4.52
[7] | 7.21
[8] | 3.74
[11] | 7.08
[13] | 3.19
